From patent publication US10456446B2, “Use of human small leucine zipper protein in osteogenesis procedure” (Korea University Research and Business Foundation, priority 2013, dated 2019)
Ends that are not written are not given here. d = 2'-deoxy (DNA)

T1: PPARγ2 (Homo sapiens, UniProt P37231)
T1 construct: expressed in transfected cells; host or cells: 293T
T1 sequence (P37231 1-505): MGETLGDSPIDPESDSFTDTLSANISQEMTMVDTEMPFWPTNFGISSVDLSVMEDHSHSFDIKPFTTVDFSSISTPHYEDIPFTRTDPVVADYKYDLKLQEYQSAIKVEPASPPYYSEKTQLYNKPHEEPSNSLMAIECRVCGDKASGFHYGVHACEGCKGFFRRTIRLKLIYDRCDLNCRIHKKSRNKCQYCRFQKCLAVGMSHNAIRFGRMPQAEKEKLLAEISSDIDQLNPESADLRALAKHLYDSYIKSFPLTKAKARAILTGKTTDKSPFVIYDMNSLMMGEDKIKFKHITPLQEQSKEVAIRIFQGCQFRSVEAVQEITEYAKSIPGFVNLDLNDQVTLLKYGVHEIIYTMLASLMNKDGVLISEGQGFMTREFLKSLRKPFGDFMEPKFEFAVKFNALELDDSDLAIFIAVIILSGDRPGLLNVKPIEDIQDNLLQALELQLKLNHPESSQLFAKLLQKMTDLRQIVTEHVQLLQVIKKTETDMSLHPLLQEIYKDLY

B1: C domains of sLZIP: C-terminal deletion mutant of sLZIP (229-354) (protein)
chain: MYSSDTRGSLPAEHGVLSRQLRALPSEDPYQLELPALQSEVPKDSTHQWLDGSDCVLQAPGNTSCLLHYMPQAPSAEPPLEWPFPDLFSEPLCRGPILPLQANLTRKGGWLPTGSPSVILQDRYSG
modifications: left off: a dimerising Fc or GST

How the values were obtained:
PPARγ2 [1] = biological target: T1, PPARγ2; assay: PPARγ2 transcriptional activity, FABP4-Luc luciferase reporter in transfected 293T cells; assay type: cell-based; details: for sLZIP-mediated PPARγ2 transcriptional activity: 100 nM si-RNA, with or without 10 nM RZD
Method: C3H10T1/2 and 293T cells were plated in a 12-well culture dish at a density of 2×10^5 cells/well and incubated for 24 hours. Then, according to instructions of the manufacturer, the cells were transfected with a 0.2 μg of reporter genes and 0.1 to 0.5 μg of a laboratory plasmid using Lipofectamine 2000 or Genefectine. After 24 hours, the cells were cultured in a serum-free DMEM with or without 10 nM of rosiglitazone. siRNAs were prepared using sLZIP and HDAC target sequences (Table 1). For an RNA interference experiment, according to instructions of the manufacturer, the cells were transfected with scrambled control group RNA and appropriate siRNAs using Lipofectamine 2000. Human MSC and C3H10T/1/2 cells were infected with an adenovirus vector containing cDNA of human sLZIP or an empty vector. The infected medium was exchanged with a fresh medium after two hours.
Appropriately transfected cells were washed with cold PBS twice, and a reporter lysis buffer (Promega) was used and lysed in a culture dish. Luciferase analysis was performed using a luciferase analysis system (Promega Corporation, Madison, Wis.). A luciferase activity was recorded in Luminometer 20/20^n (Turner BioSystems, Sunnyvale, Calif.) according to instructions of the manufacturer. The luciferase activity was normalized to a β-galactosidase activity. For β-galactosidase analysis, CMV-β-galactosidase was transfected with luciferase reporter genes. All pieces of data were represented as mean±standard deviation of the results from at least three independent experiments.
In order to examine an effect of sLZIP on the transcriptional activity of PPARγ2, 293T cells were temporarily transfected with PPARγ2 (0.5 μg), β-galactosidase (0.1 μg), FABP4-Luc reporter genes (0.2 μg) and sLZIP at different contents (0.1 to 0.5 μg). After the transfection, the cells were stimulated with or without 10 nM of rosiglitazone (RZD) (FIG. 1A), pioglitazone (PZD) (FIG. 1B), and troglitazone (TZD) (FIG. 1C). A relative luciferase activity was analyzed with or without cell ligand treatment 24 hours after transfection. Also, the 293T cells were transiently transfected with si-sLZIP at different contents (50 and 100 nM), and the cells were treated or not treated with RZD (FIG. 1D). FABP4-Luc stable C3H10T1/2 cells were infected with a sLZIP-expressing adenovirus, and then differentiated into adipocytes for 4 days (FIG. 1E). A luciferase activity was normalized to a β-galactosidase activity and represented as a relative activity (fold change). All experiments were repeated three times, and bars in the graph represent mean±standard deviation. *, P<0.05; **, P<0.01
For this purpose, 293T cells were transiently transfected with PPARγ2 (0.5 μg), β-galactosidase (0.1 μg), FABP4-Luc reporter genes (0.2 μg) and sLZIP (0.1 μg). After the transfection, the cells were stimulated with or without 10 nM of RZD and 10 nM of TSA (FIG. 4A). A promoter activity was measured according to luciferase analysis. In the 293T cells, FABP4-Luc reporter genes, sLZIP, PPAR, β-galactosidase, and 100 nM of si-RNAs and HDAC1, 2, 3 and 8 for a control group were expressed. After the transfection, the cells were stimulated with or without 10 nM of RZD, and a promoter activity was measured (FIG. 4B). 293T cells were temporarily transfected with FABP4-Luc reporter genes, PPARγ2, β-galactosidase, HDAC3 (0.5 μg) and sLZIP (0.1 μg). After the transfection, the cells were stimulated with or without 10 nM of RZD, and luciferase analysis was performed (FIG. 4C). A luciferase activity was normalized to a β-galactosidase activity and represented as a relative intensity (fold change). All experiments were repeated three times, and bars in the graph represent mean±standard deviation. GFP-sLZIP expression constructs were expressed in C3H10T1/2 cells, rabbit anti-HDAC3 antibodies and Texas Red-labeled anti-rabbit antibodies were used and analysis was performed under a fluorescence microscope. The nucleus was stained with DAPI (FIG. 4D). […]

PPARγ2 [2] = assay: GST / His pull-down and immunoprecipitation of sLZIP with PPARγ2; assay type: binding; details: GST pull-down, transfected 293T cells
Method: 293T cells were obtained and washed with cold PBS. The cells were re-suspended in an IP lysis buffer [25 mM of Tris-HCl (pH 7.4), 150 mM of NaCl, 1 mM of EDTA, 1% NP-40 and 5% glycerol, and a protease inhibitor]. A suspension was centrifuged at 16,000×g for 20 minutes at 4° C. Supernatants were collected and incubated with 0.5 μg of appropriate antibodies and 25 μl of protein A/G-agarose or a GST Sepharose 4B bead for 24 hours at 4° C. A protein complex was centrifuged at 1,000×g with a cold IP lysis buffer for 1 minute and washed five times. The final pellet was re-suspended in 50 μl of an SDS-sample buffer containing 5% β-mercaptoethanol and heated for 10 minutes at 100° C. A protein sample was isolated in SDS-PAGE (8 to 10%) and transferred to nitrocellulose membranes. Co-precipitated proteins were detected according to western blotting using specific antibodies.
In order to examine whether the transcriptional activity of PPARγ2 is regulated by interaction with sLZIP, interaction between sLZIP and PPARγ2 was examined. For this purpose, 293T cells were transfected with GST-sLZIP and Myc-PPARγ2. Cell lysates were obtained and GST pull-down analysis was performed using a glutathione 4B bead. A protein complex was analyzed in SDS-PAGE and then immunoblotted with specific antibodies (FIG. 2A). The 293T cells were transfected with GST-PPARγ2 and Flag-sLZIP, and identified according to GST-pull-down analysis (FIG. 2B). PPARγ2 was translated in vitro by a TNT translation system (Promega). His-sLZIP proteins were expressed in BL21 cells using an IPTG-inducement system. Purified His-sLZIP proteins were subjected to His pull-down analysis. Proteins bound to the bead were analyzed in SDS-PAGE, and then immunoblotted with anti-PPARγ2 and anti-His antibodies (FIG. 2C). GFP-PPARγ2 and Flag-sLZIP constructs were expressed in C3H10T1/2 cells, and analyzed using mouse anti-Flag and Texas Red-labeled anti-mouse antibodies under a fluorescence microscope. The nucleus was stained with DAPI (FIG. 2D).
Activation of many nuclear receptors depends on a supplement of coactivators. Therefore, a domain of sLZIP necessary for binding with PPARγ2 was examined. For this purpose, 293T cells were transfected with GST-full length sLZIP (1-354), N-terminal deletion mutant sLZIP (1-228), C-terminal deletion mutant sLZIP (229-354), CC-terminal deletion mutant sLZIP (297-354) and PPARγ2. Cell lysates were obtained and GST pull-down analysis was performed using a glutathione 4B bead. A protein complex was analyzed in SDS-PAGE, and then immunoblotted with specific antibodies (FIG. 3A). 293T cells were transfected with Flag-full length PPARγ2, full length PPARγ2, N-terminal deletion mutant PPARγ2 (1-310), C-terminal deletion mutants PPARγ2 (139-505) and GST-sLZIP. Cell lysates were obtained and GST pull-down analysis was performed. A protein complex was analyzed in SDS-PAGE, and then immunoblotted with anti-GST and anti-Flag antibodies (FIG. 3B).
For this purpose, 293T cells were transfected with GST-PPARγ2 and Flag-sLZIP and were treated or not treated with 10 nM of RZD for 24 hours. Cell lysates were obtained and GST pull-down analysis (FIG. 5A) and immunoprecipitation (FIG. 5B) were performed using a glutathione 4B bead. A protein complex was analyzed in SDS-PAGE, and immunoblotted with anti-GST and anti-Flag antibodies. GST-PARγ2 and Flag-sLZIP were expressed in the 293T cells, and the cells were treated with 10 nM of RZD according to time of day. The cell lysates were GST pull-down analyzed (FIG. 5C). 293T cells were transfected with GST-HDAC3 and Flag-sLZIP, and treated or not treated with 10 nM of RZD for 24 hours. The cell lysates were GST pull-down analyzed (FIG. 5D). Flag-sLZIP was expressed in the 293T cells, and the cells were treated with 10 nM of RZD for 24 hours. Immunoprecipitation analysis of the cell lysates was performed using anti-NCoR1 antibodies. […]

Molecule	sLZIP-mediated PPARγ2 transcriptional activity (PPARγ2 [1])	other results
siRNA for HDAC2: siRNA against HDAC2, SEQ ID NO: 9 and 10 (chain 1 GGUCAAUAAGACCAGAUAA; chain 2 UUAUCUGGUCUUAUUGACCG; 3' dTdT, sugars by position and backbone not given here) [reference compound]	not involved in sLZIP-mediated PPARγ2 regulation	
siRNA for HDAC8: siRNA against HDAC8, SEQ ID NO: 13 and 14 (chain 1 CAUUCAGGAUGGCAUACAA; chain 2 UUGUAUGCCAUCCUGAAUGGG; 3' dTdT, sugars by position and backbone not given here) [reference compound]	not involved in sLZIP-mediated PPARγ2 regulation	
si-sLZIP: siRNA for sLZIP, SEQ ID NO: 5 and 6 (+dTdT) (chain 1 GGACCCAGAUGACUCCACAGCAUAU; chain 2 AUAUGCUGUGGAGUCAUCUGGGUCC; 3' dTdT, sugars by position and backbone not given here) [reference compound]		transcriptional activity of PPARγ2 (relative luciferase activity) (PPARγ2 [1]; si-sLZIP 50 and 100 nM, treated or not treated with RZD): increased the transcriptional activity of PPARγ2
siRNA for HDAC1: siRNA against HDAC1, SEQ ID NO: 7 and 8 (chain 1 CGACUGUUUGAGAACCUUA; chain 2 UAAGGUUCUCAAACAGUCGCU; 3' dTdT, sugars by position and backbone not given here) [reference compound]	not involved in sLZIP-mediated PPARγ2 regulation	
HDAC3: siRNA used to knock down HDAC3, SEQ ID NO: 11 and 12 (chain 1 GCCGGUUAUCAACCAGGUA; chain 2 UACCUGGUUGAUAACCGGC; 3' dTdT, sugars by position and backbone not given here) [reference compound]	significantly increased	
CC domains of sLZIP: CC-terminal deletion mutant of sLZIP (297-354), contains proline-rich region (YMPQAPSAEPPLEWPFPDLFSEPLCRGPILPLQANLTRKGGWLPTGSPSVILQDRYSG; also: fused to dimerising Fc or GST)		interaction with PPARγ2 (PPARγ2 [2]): interacted with PPARγ2
B1		interaction with PPARγ2 (PPARγ2 [2]): interacted with PPARγ2
